Measured values: patent publication US12509446B2, “FYN and VEGFR2 kinase inhibitors” (ROTTAPHARM BIOTECH S.R.L., priority 2019, dated 2025)
Read-outs that look alike come from different tables or passages of the source.

Assays:
VEGFR2 = VEGFR2 (Homo sapiens (Human), UniProt P35968); assay: In vitro VEGFR2 kinase activity assay (Eurofins Cerep); type: biochemical; conditions: read-out: VEGFR2 KINASE INHIBITION IC50
Method: The VEGFR2 kinase inhibitory activity of representative examples of compounds of Formula (I) assays was evaluated in Eurofins Cerep (France). The concentration range of the inhibitors under investigation was from 10^−8 M up to 10^−5 M final concentration. Some compounds were re-tested in a concentration-range starting from 10^−9 M. The results are expressed as a percent of control activity (in the absence of test compound) and the IC50 values were determined by non-linear regression analysis of the inhibition/concentration curves generated with mean replicate values.

Fyn = Fyn (Homo sapiens (Human), UniProt P06241); assay: Z′-LYTE in vitro Fyn kinase activity assay; type: biochemical; conditions: ATP 50 μM; read-out: FYN KINASE INHIBITION IC50
Chain of Fyn (P06241 whole entry): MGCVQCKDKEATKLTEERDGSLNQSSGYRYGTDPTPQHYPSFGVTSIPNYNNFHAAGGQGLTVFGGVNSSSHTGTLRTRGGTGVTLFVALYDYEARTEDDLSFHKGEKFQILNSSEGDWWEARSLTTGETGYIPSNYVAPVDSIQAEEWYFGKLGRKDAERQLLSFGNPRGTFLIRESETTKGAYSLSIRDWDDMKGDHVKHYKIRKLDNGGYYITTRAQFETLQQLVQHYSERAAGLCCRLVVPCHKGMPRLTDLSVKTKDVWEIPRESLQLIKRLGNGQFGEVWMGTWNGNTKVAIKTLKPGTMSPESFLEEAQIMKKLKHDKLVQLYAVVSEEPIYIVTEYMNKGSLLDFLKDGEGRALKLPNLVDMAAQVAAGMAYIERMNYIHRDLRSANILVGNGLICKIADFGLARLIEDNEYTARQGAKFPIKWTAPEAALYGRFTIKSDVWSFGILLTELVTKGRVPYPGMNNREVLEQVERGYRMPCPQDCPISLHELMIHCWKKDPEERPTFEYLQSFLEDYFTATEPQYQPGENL
Method: The Fyn kinase inhibitory activity of representative examples of compounds of Formula (1) was evaluated by Z′-LYTE™ Kinase Assay Platform (Invitrogen). Compounds were evaluated towards active Fyn (full length active, molecular weight 87.1 kDa; Invitrogen). […] Samples representing the 0% inhibition (or total enzymatic activity) were in the presence of compound diluent (1% DMSO final in Reaction Buffer 50 mMHepes, 10 mM MgCl2, 1 mM EGTA, 0.01% Brij-35, pH 7.5). The kinase reaction was carried out in a total volume of 10 μl, for 60 minutes at 25° C. The 0% Phosphorylation (i.e. no ATP) and 100% Phosphorylation Assay Controls, included in each plate, allowed to calculate the percent phosphorylation achieved in the specific reaction well. Results are expressed as percentage of inhibition and the IC50 values were calculated by non-linear curve fitting using GraphPad™ Prism software (version 6 for Windows).

NF-kB = assay: Gene reporter (GR) assay, NF-kB activation after TNFα in JB6 Cl 41-5a (P+) cells; type: cell-based, murine; set-up: key to Gene reporter (GR) inhibition, no effect: ne: no effect; conditions: for inhibition at 10 µM / inhibition at 3 µM: read-out: Gene reporter (GR) inhibition % effect at max concentration; for IC50: TNFα 2 ng/ml, non toxic concentrations, read-out: Gene reporter (GR) inhibition IC50
Source text: To determine if the compounds of the invention were active also in a cellular model, a gene reporter assay was established in a cell line (JB6 Cl 41-5a (P+)) know to activate Fyn kinase via an inflammatory stimuli (TNFα). GR assay measures the activation of the nuclear transcription factor NF-kB, situated down-stream the Fyn activation pathway. Products active in this analysis has to penetrate in the cell and inhibit the activation pathway of NF-kB.
The murine epithelial cell line JB6 Cl 41-5a (P+) (ATCC® Cat. #CRL-2010) was stably transfected with the pGL4.32[luc2P/NFkB-RE/Hygro] vector (Promega). Clonal selection was achieved by limiting with 80 μg/ml Hygromycin B. The clones were tested for their response to TNFα stimulus.
JB6(P+) NFkB-RE-luc2P transfected cells were used for the analysis of NF-kB activity modulation, after TNFα stimulation, by Fyn-inhibitors.
Cells were pre-treated with the different compounds for 1 h and then stimulated with 2 ng/ml TNFα for 4 h. Each tested condition was analyzed in quadruplicate.
The luciferase analysis was performed with ONE-Glo™+ToxLuciferase Reporter and Cell Viability Assay kit (Promega).

Chain of VEGFR2 (P35968 20-1356): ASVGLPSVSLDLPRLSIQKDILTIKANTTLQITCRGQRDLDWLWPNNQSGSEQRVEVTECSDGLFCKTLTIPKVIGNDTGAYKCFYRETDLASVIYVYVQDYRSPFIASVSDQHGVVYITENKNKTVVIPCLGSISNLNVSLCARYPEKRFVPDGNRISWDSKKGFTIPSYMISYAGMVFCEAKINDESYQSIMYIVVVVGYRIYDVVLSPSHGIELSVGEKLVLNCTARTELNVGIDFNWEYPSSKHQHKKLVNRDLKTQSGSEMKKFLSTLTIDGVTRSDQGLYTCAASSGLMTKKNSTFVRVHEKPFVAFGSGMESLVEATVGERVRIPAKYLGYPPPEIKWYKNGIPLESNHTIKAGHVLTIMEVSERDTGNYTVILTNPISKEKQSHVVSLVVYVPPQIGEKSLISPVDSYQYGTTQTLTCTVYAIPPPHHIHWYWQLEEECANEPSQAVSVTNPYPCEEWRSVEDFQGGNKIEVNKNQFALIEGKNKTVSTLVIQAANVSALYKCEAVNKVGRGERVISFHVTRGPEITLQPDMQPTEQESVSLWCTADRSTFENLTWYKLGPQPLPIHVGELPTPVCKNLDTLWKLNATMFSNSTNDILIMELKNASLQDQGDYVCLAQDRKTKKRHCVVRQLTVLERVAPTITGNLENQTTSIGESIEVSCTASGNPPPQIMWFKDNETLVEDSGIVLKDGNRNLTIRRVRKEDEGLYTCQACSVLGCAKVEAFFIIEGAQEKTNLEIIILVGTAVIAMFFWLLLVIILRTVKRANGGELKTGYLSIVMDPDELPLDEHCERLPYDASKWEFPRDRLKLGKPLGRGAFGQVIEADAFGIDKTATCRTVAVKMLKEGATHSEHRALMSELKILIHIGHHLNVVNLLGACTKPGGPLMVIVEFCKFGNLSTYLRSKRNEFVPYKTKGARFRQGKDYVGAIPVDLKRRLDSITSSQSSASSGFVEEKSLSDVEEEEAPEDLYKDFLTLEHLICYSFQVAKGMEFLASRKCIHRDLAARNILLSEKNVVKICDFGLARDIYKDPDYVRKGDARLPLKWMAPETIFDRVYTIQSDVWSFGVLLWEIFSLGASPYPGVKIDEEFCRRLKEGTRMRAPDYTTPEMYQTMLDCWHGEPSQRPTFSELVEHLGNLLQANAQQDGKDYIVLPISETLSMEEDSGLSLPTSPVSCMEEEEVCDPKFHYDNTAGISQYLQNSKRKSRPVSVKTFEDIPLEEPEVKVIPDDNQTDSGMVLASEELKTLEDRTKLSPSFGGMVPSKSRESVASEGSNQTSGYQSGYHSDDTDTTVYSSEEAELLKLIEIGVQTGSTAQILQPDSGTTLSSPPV

Row | IC50 (VEGFR2) [nM] | IC50 (Fyn) [nM] | Compound | IC50 (NF-kB; Mus musculus, JB6 Cl 41-5a) [nM] | other results
1 | < 10 | 16 | CC(C)Cc1ccc(C(=O)Nc2ccc(F)c(CCc3cc(NC(=O)c4ncccn4)[nH]n3)c2)cn1 [Compound 9, N-(3-(2-fluoro-5-(6-isobutylnicotinamido)phenethyl)-1H-pyrazol-5-yl)pyrimidine-2-carboxamide] |  | inhibition at 10 µM (NF-kB; Mus musculus, JB6 Cl 41-5a): 47%
2 | < 10 | 4 | O=C(Nc1ccc(F)c(CCc2cc(Nc3cc4c(cn3)CN(CCO)C4)[nH]n2)c1)c1cccc(C(F)(F)F)c1 [Compound 10, N-(4-fluoro-3-(2-(5-((2-(2-hydroxyethyl)-2,3-dihydro-1H-pyrrolo[3,4-c]pyridin-6-yl)amino)-1H-pyrazol-3-yl)ethyl)phenyl)-3-(trifluoromethyl) benzamide] | 2000 | 
3 | < 10 | 24 | O=C(Nc1ccc(Cl)c(CCc2cc(Nc3cnccn3)[nH]n2)c1)c1cccc(C(F)(F)F)c1 [Compound 16, N-(4-chloro-3-(2-(5-(pyrazin-2-ylamino)-1H-pyrazol-3-yl)ethyl)phenyl)-3-(trifluoromethyl)benzamide] | 321 | 
4 | 16 | 15 | Cc1ccc(NC(=O)c2cccc(C(F)(F)F)c2)cc1CCc1cc(NC(=O)c2ccccn2)[nH]n1 [Compound 18, N-(5-(2-methyl-5-(3-(trifluoromethyl)benzamido)phenethyl)-1H-pyrazol-3-yl)picolinamide] | 974 | 
5 |  | 18 | Cc1ccc(NC(=O)N2CCC3(CCC3)C2)cc1CCc1cc(Nc2nccnc2C)[nH]n1 [Compound 20, N-(4-methyl-3-(2-(5-((3-methylpyrazin-2-yl)amino)-1H-pyrazol-3-yl)ethyl)phenyl)-6-azaspiro[3.4]octane-6-carboxamide] |  | inhibition at 3 µM (NF-kB; Mus musculus, JB6 Cl 41-5a): 45%
6 |  | 5 | CCC1(CC)CCN(C(=O)Nc2ccc(C)c(CCc3cc(Nc4nccnc4C)[nH]n3)c2)C1 [Compound 21, 3,3-diethyl-N-(4-methyl-3-(2-(5-((3-methylpyrazin-2-yl)amino)-1H-pyrazol-3-yl)ethyl)phenyl)pyrrolidine-1-carboxamide] |  | inhibition at 3 µM (NF-kB; Mus musculus, JB6 Cl 41-5a): 37%
7 |  | 7 | CCC1(CC)CCN(C(=O)Nc2ccc(C)c(CCc3cc(Nc4cnccn4)[nH]n3)c2)C1 [Compound 22, 3,3-diethyl-N-(4-methyl-3-(2-(5-(pyrazin-2-ylamino)-1H-pyrazol-3-yl)ethyl)phenyl)pyrrolidine-1-carboxamide] | 1140 | 
8 |  | 5 | Cc1ccc(NC(=O)NC2CCC(C)(C)CC2)cc1CCc1cc(NC(=O)c2ccc(OC3CN(C(C)C)C3)cc2)[nH]n1 [Compound 23, N-(3-(5-(3-(4,4-dimethylcyclohexyl)ureido)-2-methylphenethyl)-1H-pyrazol-5-yl)-4-((1-isopropylazetidin-3-yl)oxy)benzamide] | 1440 | 
9 |  | 2 | Cc1ccc(NC(=O)NC2CCCC2)cc1CCc1cc(NC(=O)c2ccc(N3CCN(C)CC3)cc2)[nH]n1 [Compound 24, N-(3-(5-(3-cyclopentylureido)-2-methylphenethyl)-1H-pyrazol-5-yl)-4-(4-methylpiperazin-1-yl)benzamide] | 2330 | 
10 | < 10 | 12 | Cc1nc(CN2CCOCC2)cc(Nc2cc(CCc3cc(NC(=O)c4cccc(C(F)(F)F)c4)ccc3F)[nH]n2)n1 [Compound 26, N-(4-fluoro-3-(2-(3-((2-methyl-6-(morpholinomethyl)pyrimidin-4-yl)amino)-1H-pyrazol-5-yl)ethyl)phenyl)-3-(trifluoromethyl)benzamide] |  | inhibition at 3 µM (NF-kB; Mus musculus, JB6 Cl 41-5a): 50%
11 | 12 | 10 | Cc1nc(CN2C[C@@H](C)O[C@@H](C)C2)cc(Nc2cc(CCc3cc(NC(=O)c4cccc(C(F)(F)F)c4)ccc3F)[nH]n2)n1 [Compound 27, N-(3-(2-(3-((6-(((2S,6R)-2,6-dimethylmorpholino)methyl)-2-methylpyrimidin-4-yl)amino)-1H-pyrazol-5-yl)ethyl)-4-fluorophenyl)-3-(trifluoromethyl)benzamide] |  | 
12 | < 10 | 17 | Cc1nc(CN2CCCC2)cc(Nc2cc(CCc3cc(NC(=O)c4cccc(C(F)(F)F)c4)ccc3F)[nH]n2)n1 [Compound 28, N-(4-fluoro-3-(2-(3-((2-methyl-6-(pyrrolidin-1-ylmethyl)pyrimidin-4-yl)amino)-1H-pyrazol-5-yl)ethyl)phenyl)-3-(trifluoromethyl)benzamide] |  | 
13 |  |  | Cc1nc(Nc2cc(CCc3cc(NC(=O)c4cccc(C(F)(F)F)c4)ccc3F)n[nH]2)cc(N2CCN(CCO)CC2)n1 [Compound 30, N-(4-fluoro-3-(2-(3-((6-(4-(2-hydroxyethyl)piperazin-1-yl)-2-methylpyrimidin-4-yl)amino)-1H-pyrazol-5-yl)ethyl)phenyl)-3-(trifluoromethyl) benzamide] |  | Gene reporter (GR) inhibition, no effect (NF-kB): ne
14 |  |  | Cc1nc(Nc2cc(CCc3cc(NC(=O)c4cccc(C(F)(F)F)c4)ccc3F)n[nH]2)cc(N2CC(O)C2)n1 [Compound 31, N-(4-fluoro-3-(2-(3-((6-(3-hydroxyazetidin-1-yl)-2-methylpyrimidin-4-yl)amino)-1H-pyrazol-5-yl)ethyl)phenyl)-3-(trifluoromethyl)benzamide] |  | inhibition at 10 µM (NF-kB; Mus musculus, JB6 Cl 41-5a): 47%
15 | < 10 | 9 | Cc1nc(Nc2cc(CCc3cc(NC(=O)c4cccc(C(F)(F)F)c4)ccc3F)n[nH]2)cc(N2CC[C@H](N(C)C)C2)n1 [Compound 32, (S)-N-(3-(2-(3-((6-(3-(dimethylamino)pyrrolidin-1-yl)-2-methylpyrimidin-4-yl)amino)-1H-pyrazol-5-yl)ethyl)-4-fluorophenyl)-3-(trifluoromethyl)benzamide] |  | inhibition at 3 µM (NF-kB; Mus musculus, JB6 Cl 41-5a): 29%
16 | < 10 | 32 | Cc1ccc(NC(=O)c2ccnc(C(C)(C)C#N)c2)cc1CCc1cc(Nc2ncccc2C)[nH]n1 [Compound 36, 2-(2-cyanopropan-2-yl)-N-(4-methyl-3-(2-(5-((3-methylpyridin-2-yl)amino)-1H-pyrazol-3-yl)ethyl)phenyl)isonicotinamide] | 494 | 
17 |  | 2 | Cc1nc(C#N)cc(Nc2cc(CCc3cc(NC(=O)N4CCC5(CCCC5)CC4)ccc3C)n[nH]2)n1 [Compound 38, N-(3-(2-(5-((6-cyano-2-methylpyrimidin-4-yl)amino)-1H-pyrazol-3-yl)ethyl)-4-methylphenyl)-8-azaspiro [4.5] decane-8-carboxamide] |  | inhibition at 10 µM (NF-kB; Mus musculus, JB6 Cl 41-5a): 25%
18 | < 10 | 8 | Cc1ccc(NC(=O)c2cc(C(C)(C)C#N)ccn2)cc1CCc1cc(Nc2cnccn2)[nH]n1 [Compound 41, 4-(2-cyanopropan-2-yl)-N-(4-methyl-3-(2-(5-(pyrazin-2-ylamino)-1H-pyrazol-3-yl)ethyl)phenyl)picolinamide] | 327 | 
19 | 20 | 13 | Cc1nc(Nc2cc(CCc3cc(NC(=O)c4cccc(C(F)(F)F)c4)ccc3F)[nH]n2)cc(-c2cnn(CCO)c2)n1 [Compound 42, N-(4-fluoro-3-(2-(3-((6-(1-(2-hydroxyethyl)-1H-pyrazol-4-yl)-2-methylpyrimidin-4-yl)amino)-1H-pyrazol-5-yl)ethyl)phenyl)-3-(trifluoromethyl)benzamide] |  | inhibition at 10 µM (NF-kB; Mus musculus, JB6 Cl 41-5a): 56%
20 |  | 8 | Cc1ccc(NC(=O)c2ccnc(C(C)(C)C#N)c2)cc1CCc1cnc(Nc2cnccn2)s1 [Compound 50, 2-(2-cyanopropan-2-yl)-N-(4-methyl-3-(2-(2-(pyrazin-2-ylamino)thiazol-5-yl)ethyl)phenyl)isonicotinamide] |  | inhibition at 3 µM (NF-kB; Mus musculus, JB6 Cl 41-5a): 86%

Row | Compound | IC50 (VEGFR2) [nM] | IC50 (Fyn) [nM] | IC50 (NF-kB; Mus musculus, JB6 Cl 41-5a) [nM] | other results
21 | Cc1ccc(NC(=O)NC2CCC(C)(C)CC2)cc1CCc1cc(NC(=O)c2ccc(C3CCN(C)CC3)cc2)[nH]n1 [Compound 25, N-(3-(5-(3-(4,4-dimethylcyclohexyl)ureido)-2-methylphenethyl)-1H-pyrazol-5-yl)-4-(1-methylpiperidin-4-yl)benzamide] |  | 3 |  | IC50 (NF-kB): 1420 nM
